Where two headings read alike, the source gives them in different places.
Tests used:
MAGL [1] = target: T1, MAGL (Mus musculus, UniProt O35678); assay: In vivo MAGL inhibition in mouse brain proteomes after oral gavage; conditions: 5 mg/kg oral gavage, 4 h after administration, read-out: MAGL % inh. 5 mg/kg (mouse)
T1 construct: brain proteomes were prepared and analyzed according to previously established methods; from tissue; host or cells: brain of wild-type C57Bl/6J mice
T1 sequence (O35678 1-303): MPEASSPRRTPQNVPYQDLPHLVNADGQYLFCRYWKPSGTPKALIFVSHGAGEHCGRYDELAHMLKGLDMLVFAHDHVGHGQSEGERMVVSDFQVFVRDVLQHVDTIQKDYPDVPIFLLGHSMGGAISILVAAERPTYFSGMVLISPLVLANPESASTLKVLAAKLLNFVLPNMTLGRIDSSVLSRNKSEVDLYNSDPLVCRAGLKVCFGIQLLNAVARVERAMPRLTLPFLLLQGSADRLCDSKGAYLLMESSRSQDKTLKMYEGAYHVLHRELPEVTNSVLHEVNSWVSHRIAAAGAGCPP
Method: Inhibitors were administered to wild-type C57B1/6J by oral gavage in a vehicle of polyethylene glycol. Each animal was sacrificed 4 h following administration and brain proteomes were prepared and analyzed according to previously established methods (See Niphakis, M. J., et al. (2011) ACS Chem. Neurosci. and Long, J. Z., et al. Nat. Chem. Biol. 5:37-44).

[2] = Kinetic solubility in PBS; type: physicochemical; conditions: aqueous buffer, kinetic from dmso stock
Method: The kinetic solubility of test articles was determined in PBS at pH 2.0 and pH 7.4 in duplicate. A stock solution of test compound in DMSO (10 mM) was incubated at RT for 2 hours with shaking at 1,100 RPM. The sample was then filtered using a vacuum manifold, diluted, and analyzed by LC-MS/MS. Chromatographic conditions: Phenomenex Synergi 4μ Hydro-PR 80A column (2.0×30 mm) coupled with pre-guard column; mobile phase=0.1% formic acid in acetonitrile and 0.1% formic acid in water; flowrate=0.65 mL/min; column temperature=40° C.; injection volume: 3 μL.
(§1) Mass conditions: Turbo spray ion source; ESI ionization model; MRM scan type; Collison gas=6 L/min; Curtain gas=30 L/min; Nebulize gas=50 L/min; Auxiliary gas=50 L/min; Temperature=500 degrees C.; Ion spray voltage=+5500 v (positive MRM).
(§2) The filtered solution was analyzed and quantified against a standard of known concentration in DMSO using UPLC coupled with mass spectral peak identification and quantitation. Solubility values of the test articles were calculated using Microsoft Excel as follows (DF is the dilution factor): […]

[3] = In vitro human hepatocyte stability; type: in vitro ADME; conditions: cryopreserved human hepatocytes (pooled donor), human hepatocytes 0.5×10^6 cells/mL, read-out: Scaled-up unbound CLint
Method: The metabolic stability of test articles (1 μM) in commercially sourced, pooled donor, cryopreserved human hepatocytes (0.5×10^6 cells/mL) was determined in duplicate. The CLint reactions (250 μL) were initiated by addition of test compound. Aliquots (25 μL) were taken at 0, 15, 30, 45, 60, 90, 120 and 240 minutes and then protein crashed with ice-cold acetonitrile containing internal standard then centrifuged (3220 g for 25 minutes). Supernatant was used for LC-MS/MS analysis. The in vitro half-life (in vitro t1/2) was determined from the slope value: in vitro t1/2=−0.693/k. Conversion of the in vitro t1/2 (in min) into the scale-up unbound intrinsic clearance (Scaled-up unbound CLint, in mL/min/kg) was done using the following equation (mean of duplicate determinations), with data shown in Table 5: Scaled-up unbound CLint=kV/N×scaling factor. V=incubation volume (0.25 mL); N=number of hepatocytes per well ([…]). Scaling factors for in vivo intrinsic clearance prediction are listed below: […]

[4] = Rat Kp, brain disposition after oral gavage; type: in vivo
Method: (§3) Brain disposition was evaluated in male Sprague-Dawley rats (n=3, standard body weight). Briefly, test compound was formulated as a simple suspension, in 0.5% HPMC in water, then administered by oral gavage (5 mg/kg, 5 mL/kg). Four hours post dosing, rats were sacrificed, and terminal blood and brain samples were taken. Blood was obtained via cardiac puncture (0.1 mL) and was added into 0.4 mL CH3CN for precipitation immediately. The samples were stored at −75+/−15° C. prior to analysis. Brain tissue samples were collected after animals were fully exsanguinated, and the tissues were washed with cold saline quickly. After sectioning, brain sections were immediately frozen in liquid nitrogen and stored at −75+/−15° C. prior to analysis. Blood and brain samples were analyzed by LC/MS/MS using an optimized analytical method. Concentrations of test compound in blood and brain were quantified against matrix matched calibration standards. The total blood, plasma, and brain concentration data are presented in Table 2 alongside the calculated brain Kp (total brain concentration:total plasma concentration ratio), the calculated brain kp,uu (unbound brain concentration:unbound plasma concentration ratio), the free fractions in rat plasma and brain, and the in vitro rat blood to plasma distribution profile. The total plasma concentration data were calculated from the total blood concentration data using rat blood to plasma ratio which was measured in vitro (1 μM test compound). For kp,uu determination, the free fraction in rat plasma and brain homogenate were measured in vitro by standard equilibrium dialysis (1 μM test compound and 6 h equilibration against buffer pH 7.4; for rat plasma analysis, 100 mM stock solution of diisopropyl fluorophosphate was added to the pre-warmed rat plasma prior to adding test article).

[5] = Free fraction in rat plasma and brain homogenate by equilibrium dialysis; type: in vitro ADME
Method: as §3

[6] = In vitro rat blood to plasma ratio; type: in vitro ADME; conditions: 1 μM test compound
Method: as §3

[7] = Thermodynamic solubility in PBS; type: physicochemical; conditions: aqueous buffer, thermodynamic from solid; PBS pH 7.4; 24 hours at RT
Method: The thermodynamic solubility of test article was determined in PBS at pH 7.4 in duplicate. The test article (1.5 mg) in PBS was incubated for 24 hours at RT with shaking at 1100 rpm. Sample was then filtered using a vacuum manifold, diluted, and analyzed by LC-MS/MS. Chromatographic conditions: Phenomenex Synergi 4μ Hydro-PR 80A column (2.0×30 mm) coupled with pre-guard column; mobile phase=0.1% formic acid in acetonitrile and 0.1% formic acid in water; flowrate=0.65 mL/min; column temperature=40 degrees C.; injection volume: 10 μL.
Mobile phase: 0.1% formic acid in acetonitrile (A) and 0.1% formic acid in water (B)
as §1, §2

MAGL [8] = target: T2, MAGL (Homo sapiens, UniProt Q99685); assay: In vitro competitive activity-based protein profiling (PC3 human cell membrane proteomes); type: biochemical
T2 construct: PC3 human cell membrane proteomes; endogenous in cells; host or cells: PC3 human cells (membrane proteome)
T2 sequence (Q99685 1-303): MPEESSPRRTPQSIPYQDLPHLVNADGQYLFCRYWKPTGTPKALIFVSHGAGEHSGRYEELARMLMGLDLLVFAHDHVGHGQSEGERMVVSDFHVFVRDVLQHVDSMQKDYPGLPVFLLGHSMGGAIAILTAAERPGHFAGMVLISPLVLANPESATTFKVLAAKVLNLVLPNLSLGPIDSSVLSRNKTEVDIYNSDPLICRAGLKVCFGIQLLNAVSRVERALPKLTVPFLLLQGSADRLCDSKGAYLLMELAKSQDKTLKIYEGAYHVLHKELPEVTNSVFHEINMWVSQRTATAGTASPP
Method: PC3 human cell membrane proteomes (50 µL, 2.0 mg/mL total protein concentration) were preincubated with varying concentrations of inhibitors at 37° C. After 30 min, the ABPP probe JW912-Bodipy (1.0 µL, 50 µM in DMSO) was added and the mixture was incubated for 30 min at room temperature. Reactions were quenched with SDS loading buffer (15 μL-4×) and run on SDS-PAGE. Following gel imaging, serine hydrolase activity was determined by measuring fluorescent intensity of gel bands corresponding to MAGL using ImageJ 1.43u software. Intensities were converted to percent enzyme activity by normalizing to DMSO controls. IC50 values were determined by fitting percent enzyme activities to a non-linear regression, 4-parameter, sigmoidal dose response function in Prism GraphPad.

[9] = PBS pH 7.4, RT, read-out: pH 7.4 Solubility (kinetic)
[10] = PBS pH 2.0, RT, read-out: pH 2 Solubility (kinetic)
[11] = 5 mg/kg oral gavage, 4 h post dosing, mean n = 3

Row | SMILES | inhibition at 5 mg/kg (MAGL [1]) [%] | solubility kinetic at 2 h [2, 9] [µM] | CLint scaled at 1 μM [3] [mL/min/kg] | solubility kinetic at 2 h [2, 10] [µM] | also measured
1 | O=C(Nc1cncnc1)C1CC12CCN(C(=O)OC(C(F)(F)F)C(F)(F)F)CC2 (single isomer, unassigned) [Example 96, 1,1,1,3,3,3-hexafluoropropan-2-yl (R or S)-1-(pyrimidin-5-ylcarbamoyl)-6-azaspiro[2.5]octane-6-carboxylate] | 100 | 237 | 17.1 |  | 
2 | O=C(Nc1ccncc1)C1CC12CCN(C(=O)OC(C(F)(F)F)C(F)(F)F)CC2 (single isomer, unassigned) [Example 24, 1,1,1,3,3,3-hexafluoropropan-2-yl (R or S)-1-(pyridin-4-ylcarbamoyl)-6-azaspiro[2.5]octane-6-carboxylate] | 90 | 197 | 11.9 |  | 
3 | O=C(Nc1cncs1)C1CC12CCN(C(=O)OC(C(F)(F)F)C(F)(F)F)CC2 (single isomer, unassigned) [Example 129, 1,1,1,3,3,3-hexafluoropropan-2-yl (R or S)-1-(thiazol-5-ylcarbamoyl)-6-azaspiro[2.5]octane-6-carboxylate] | 50 |  | 53.6 |  | 
4 | O=C(NCC1CCOCC1)[C@H]1CC12CCN(C(=O)OC(C(F)(F)F)C(F)(F)F)CC2 (single isomer, unassigned) [Example 117] | 100 | 251 | 20.6 |  | 
5 | Cn1ccc(NC(=O)C2CC23CCN(C(=O)OC(C(F)(F)F)C(F)(F)F)CC3)n1 (single isomer, unassigned) [Example 127, 1,1,1,3,3,3-hexafluoropropan-2-yl (R or S)-1-((1-methyl-1H-pyrazol-3-yl)carbamoyl)-6-azaspiro[2.5]octane-6-carboxylate] | 75 | 292 | 9.51 | 275 | 
6 | O=C(Nc1cccnc1)[C@H]1CC12CCN(C(=O)OC(C(F)(F)F)C(F)(F)F)CC2 (single isomer, unassigned) [Example 2] | 100 | 189 | 34.8 | 30.3 | Total plasma concentration ([4]; 5 mg/kg oral gavage, 4 h, calculated from total blood concentration using blood to plasma ratio): 0.066 µM; Total blood concentration [4, 11]: 0.049 µM; Total brain concentration [4, 11]: 0.199 µM; Kp at 4 h ([4]; male, Sprague-Dawley, po, total brain concentration:total plasma concentration ratio, 5 mg/kg p.o., 4 h): 3.01; Kp uu at 4 h ([4]; male, Sprague-Dawley, po, unbound brain concentration:unbound plasma concentration ratio, 5 mg/kg p.o., 4 h): 0.925; fraction unbound at 6 h, 1 μM ([5]; rat brain homogenate, buffer pH 7.4, read-out: Rat brain free fraction): 0.024; fraction unbound at 6 h, 1 μM ([5]; rat plasma, buffer pH 7.4, read-out: Rat plasma free fraction): 0.078; blood plasma ratio at 1 μM [6]: 0.833; solubility thermodynamic at 24 h [7]: 91.8 µg/mL
7 | Cc1cnc(NC(=O)C2CC23CCN(C(=O)OC(C(F)(F)F)C(F)(F)F)CC3)cn1 (single isomer, unassigned) [Example 112, 1,1,1,3,3,3-hexafluoropropan-2-yl (R or S)-1-((5-methylpyrazin-2-yl)carbamoyl)-6-azaspiro[2.5]octane-6-carboxylate] | 75 | 109 | 9.59 | 185 | 
8 | CP(C)(=O)c1ccc(NC(=O)C2CC23CCN(C(=O)OC(C(F)(F)F)C(F)(F)F)CC3)cn1 (single isomer, unassigned) [Example 20, 1,1,1,3,3,3-hexafluoropropan-2-yl (R or S)-1-((6-(dimethylphosphoryl)pyridin-3-yl)carbamoyl)-6-azaspiro[2.5]octane-6-carboxylate] | 0 | 310 | 0.85 |  | 
9 | O=C(Nc1cncc(F)c1)C1CC12CCN(C(=O)OC(C(F)(F)F)C(F)(F)F)CC2 (single isomer, unassigned) [Example 40, 1,1,1,3,3,3-hexafluoropropan-2-yl (R or S)-1-((5-fluoropyridin-3-yl)carbamoyl)-6-azaspiro[2.5]octane-6-carboxylate] | 100 | 100 | 43.2 | 163 | MAGL % inh. 1 µM (human PC3) (MAGL [8]): 100%
10 | CC1(NC(=O)C2CC23CCN(C(=O)OC(C(F)(F)F)C(F)(F)F)CC3)CCOCC1 (single isomer, unassigned) [Example 132, 1,1,1,3,3,3-hexafluoropropan-2-yl (R or S)-1-((4-methyltetrahydro-2H-pyran-4-yl)carbamoyl)-6-azaspiro[2.5]octane-6-carboxylate] | 100 |  | 44.2 |  | 

Source: patent US11434222B2, “MAGL inhibitors” (H. LUNDBECK A/S, priority 2020, dated 2022)
